Test results from patent US6900354B2, “3-phenyl-propionamido, 3-phenyl-acrylamido and 3-phenyl-propynamido derivatives” (Hoffman-La Roche Inc., priority 2002, dated 2005).

Legend:
human MAO-B = biological target: T1, human MAO-B (Homo sapiens, UniProt P27338); experiment: MAO-B enzymatic activity, spectrophotometric assay (Amplex Red, tyramine) on membranes of transfected EBNA cells; type: biochemical; settings: substrate tyramine, 30 min preincubation at 37° C., pH 7.4
T1 construct: expressed in transfected cells; host or cells: EBNA cells (transient transfection); membranes by centrifugation at 45,000 x g
T1 sequence (P27338 1-520): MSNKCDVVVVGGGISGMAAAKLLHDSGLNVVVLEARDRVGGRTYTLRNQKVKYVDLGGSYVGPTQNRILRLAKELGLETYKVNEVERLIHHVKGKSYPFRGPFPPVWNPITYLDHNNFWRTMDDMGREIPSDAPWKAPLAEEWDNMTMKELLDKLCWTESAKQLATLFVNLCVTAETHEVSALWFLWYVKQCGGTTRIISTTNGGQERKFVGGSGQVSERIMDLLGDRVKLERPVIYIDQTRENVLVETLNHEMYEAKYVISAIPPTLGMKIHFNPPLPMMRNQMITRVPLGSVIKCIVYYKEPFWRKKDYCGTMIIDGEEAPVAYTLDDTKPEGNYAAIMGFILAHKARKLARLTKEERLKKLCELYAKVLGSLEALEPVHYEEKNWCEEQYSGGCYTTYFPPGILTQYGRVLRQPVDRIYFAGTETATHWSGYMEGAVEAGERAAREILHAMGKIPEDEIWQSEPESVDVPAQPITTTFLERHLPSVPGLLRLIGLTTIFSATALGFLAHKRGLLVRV
Protocol: (§1) The pharmacological activity of the compounds was tested using the following method. The cDNAs encoding human MAO-A and MAO-B were transiently transfected into EBNA cells using the procedure described by Schlaeger and Christensen [Transient Gene Expression in Mammalian Cells Grown in Serum-free Suspension Culture; Cytotechnology, 15:1-13 (1998)]. After transfection, cells were homogenised by means of a Polytron homogenizer in 20 mM Tris HCl buffer, pH 8.0, containing 0.5 mM EGTA and 0.5 mM phenylmethanesulfonyl fluoride. Cell membranes were obtained by centrifugation at 45,000×g and, after two rinsing step with 20 mM Tris HCl buffer, pH 8.0, containing 0.5 mM EGTA, membranes were eventually re-suspended in the above buffer and aliquots stored at −80° C. until use.
(§2) MAO-A and MAO-B enzymatic activity was assayed in 96-well-plates using a spectrophotometric assay adapted from the method described by Zhou and Panchuk-Voloshina [A One-Step Fluorometric Method for the Continuous Measurement of Monoamine Oxidase Activity, Analytical Biochemistry 253:169-174 (1997)]. Briefly, membrane aliquots were incubated in 0.1 M potassium phosphate buffer, pH 7.4, for 30 min at 37° C. with or without various concentrations of the compounds. After this period, the enzymatic reaction was started by the addition of the MAO substrate tyramine together with 1 U/ml horse-radish peroxidase (Roche Biochemicals) and 80 μM N-acetyl-3,7,-dihydroxyphenoxazine (Amplex Red, Molecular Probes). The samples were further incubated for 30 min at 37° C. in a final volume of 200 μl and absorbance was then determined at a wavelength of 570 nm using a SpectraMax plate reader (Molecular Devices). Background (non-specific) absorbance was determined in the presence of 10 μM clorgyline for MAO-A or 10 μM L-deprenyl for MAO-B.
(§3) IC50 values were determined from inhibition curves obtained using nine inhibitor concentrations in duplicate, by fitting data to a four parameter logistic equation using a computer program.

human MAO-A = biological target: T2, human MAO-A (Homo sapiens, UniProt P21397); experiment: MAO-A enzymatic activity, spectrophotometric assay (Amplex Red, tyramine) on membranes of transfected EBNA cells; type: biochemical; settings: heading: MAO-A IC50, substrate tyramine, 30 min preincubation at 37° C., pH 7.4
T2 construct: expressed in transfected cells; host or cells: EBNA cells (transient transfection); membranes by centrifugation at 45,000 x g
T2 sequence (P21397 1-527): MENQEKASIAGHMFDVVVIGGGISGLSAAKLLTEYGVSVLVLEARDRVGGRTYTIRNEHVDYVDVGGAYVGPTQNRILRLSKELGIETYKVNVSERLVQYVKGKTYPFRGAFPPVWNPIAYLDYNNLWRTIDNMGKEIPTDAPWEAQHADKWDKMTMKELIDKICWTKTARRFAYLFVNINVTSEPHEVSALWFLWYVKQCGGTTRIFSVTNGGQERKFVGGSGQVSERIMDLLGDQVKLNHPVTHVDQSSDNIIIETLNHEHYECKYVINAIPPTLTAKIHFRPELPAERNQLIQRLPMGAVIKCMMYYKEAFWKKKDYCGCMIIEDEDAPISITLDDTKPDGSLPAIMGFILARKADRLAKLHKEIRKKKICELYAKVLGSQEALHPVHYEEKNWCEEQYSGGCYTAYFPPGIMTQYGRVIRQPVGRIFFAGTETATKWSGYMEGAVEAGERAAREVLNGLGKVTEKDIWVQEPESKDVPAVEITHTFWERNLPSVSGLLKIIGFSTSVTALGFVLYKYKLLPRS
Protocol: as §1, §2, §3

CNC(=O)C(C)Cc1ccc(OCc2cccc(F)c2)cc1 (stereo not drawn) [Example 4, 3-[4-(3-Fluoro-benzyloxy)-phenyl]-2,N-dimethyl-propionamide]
IC50 (human MAO-B): 29 nM | IC50 (human MAO-A): > 10000 nM

CC(=Cc1ccc(OCc2cccc(F)c2)cc1)C(N)=O [Example 1, 3-[4-(3-Fluoro-benzyloxy)-phenyl]-2-methyl-acrylamide]
IC50 (human MAO-B): 83 nM | IC50 (human MAO-A): > 10000 nM

NC(=O)C#Cc1ccc(OCc2cccc(F)c2)cc1 [Example 5, 3-[4-(3-Fluoro-benzyloxy)-phenyl]-propynoic acid amide]
IC50 (human MAO-B): 98 nM | IC50 (human MAO-A): 5620 nM
